Usually IC50 stands for the concentration needed to halve the response being measured. Low values mean inhibition by little substance, high ones a need for much substance.

Molecules are shown by their SMILES.

For test [1], the target named is Norepinephrine transporter (Rattus norvegicus, UniProt Q9WTR4). Put plainly: Binding affinity towards norepinephrine transporter in rat striatum using [3H]nisoxetine as radioligand. Type of test: tissue-based.
Test [2] addresses Sodium-dependent serotonin transporter (Rattus norvegicus, UniProt P31652). The experiment in a line: Binding affinity towards serotonin transporter in rat striatum using [3H]citalopram as radioligand. Type of test: tissue-based.
Test [3] deals with T1, Sodium-dependent dopamine transporter (Rattus norvegicus, UniProt P23977). Put plainly: Binding affinity towards dopamine transporter in rat striatum using [3H]WIN-35 428 as radioligand. Type of test: tissue-based.
Test [4] deals with T1, Sodium-dependent dopamine transporter. Put plainly: Inhibition of uptake from dopamine transporter in rat striatum using [3H]DA as radioligand. In kind it is functional, tissue-based.

Sequence of Norepinephrine transporter (Q9WTR4 whole entry): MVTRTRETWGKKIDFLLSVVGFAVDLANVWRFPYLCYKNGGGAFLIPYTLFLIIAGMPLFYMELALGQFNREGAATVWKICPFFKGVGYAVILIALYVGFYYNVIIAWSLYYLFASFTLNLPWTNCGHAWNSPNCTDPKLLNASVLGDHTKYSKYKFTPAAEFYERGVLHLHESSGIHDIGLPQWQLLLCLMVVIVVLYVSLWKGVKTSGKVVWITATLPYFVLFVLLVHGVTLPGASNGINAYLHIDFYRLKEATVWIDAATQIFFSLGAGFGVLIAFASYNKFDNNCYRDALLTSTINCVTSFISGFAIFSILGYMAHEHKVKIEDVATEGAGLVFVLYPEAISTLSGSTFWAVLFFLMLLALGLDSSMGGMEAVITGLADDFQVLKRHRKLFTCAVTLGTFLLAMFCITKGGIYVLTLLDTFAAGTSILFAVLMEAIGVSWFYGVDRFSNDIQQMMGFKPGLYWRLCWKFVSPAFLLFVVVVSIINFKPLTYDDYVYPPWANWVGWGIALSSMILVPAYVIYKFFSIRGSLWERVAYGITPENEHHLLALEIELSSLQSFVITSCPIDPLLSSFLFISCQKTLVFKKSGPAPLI
T1 sequence (P23977 whole entry): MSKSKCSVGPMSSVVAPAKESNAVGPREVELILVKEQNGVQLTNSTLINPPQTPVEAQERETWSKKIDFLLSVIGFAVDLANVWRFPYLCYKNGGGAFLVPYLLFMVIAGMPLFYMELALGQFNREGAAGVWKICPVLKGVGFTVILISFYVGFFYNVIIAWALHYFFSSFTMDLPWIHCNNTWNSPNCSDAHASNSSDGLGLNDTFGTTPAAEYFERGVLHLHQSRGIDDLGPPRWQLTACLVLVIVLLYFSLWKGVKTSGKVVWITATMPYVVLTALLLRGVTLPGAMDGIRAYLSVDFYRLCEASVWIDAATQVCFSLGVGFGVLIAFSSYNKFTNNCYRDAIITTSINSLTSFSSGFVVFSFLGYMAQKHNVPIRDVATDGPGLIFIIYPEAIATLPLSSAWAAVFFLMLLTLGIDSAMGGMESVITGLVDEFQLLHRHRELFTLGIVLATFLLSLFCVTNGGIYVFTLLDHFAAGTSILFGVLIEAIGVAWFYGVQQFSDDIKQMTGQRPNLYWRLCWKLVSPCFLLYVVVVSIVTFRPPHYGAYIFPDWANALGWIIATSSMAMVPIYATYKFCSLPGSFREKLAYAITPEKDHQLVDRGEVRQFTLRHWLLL
Sequence of Sodium-dependent serotonin transporter (P31652 whole entry): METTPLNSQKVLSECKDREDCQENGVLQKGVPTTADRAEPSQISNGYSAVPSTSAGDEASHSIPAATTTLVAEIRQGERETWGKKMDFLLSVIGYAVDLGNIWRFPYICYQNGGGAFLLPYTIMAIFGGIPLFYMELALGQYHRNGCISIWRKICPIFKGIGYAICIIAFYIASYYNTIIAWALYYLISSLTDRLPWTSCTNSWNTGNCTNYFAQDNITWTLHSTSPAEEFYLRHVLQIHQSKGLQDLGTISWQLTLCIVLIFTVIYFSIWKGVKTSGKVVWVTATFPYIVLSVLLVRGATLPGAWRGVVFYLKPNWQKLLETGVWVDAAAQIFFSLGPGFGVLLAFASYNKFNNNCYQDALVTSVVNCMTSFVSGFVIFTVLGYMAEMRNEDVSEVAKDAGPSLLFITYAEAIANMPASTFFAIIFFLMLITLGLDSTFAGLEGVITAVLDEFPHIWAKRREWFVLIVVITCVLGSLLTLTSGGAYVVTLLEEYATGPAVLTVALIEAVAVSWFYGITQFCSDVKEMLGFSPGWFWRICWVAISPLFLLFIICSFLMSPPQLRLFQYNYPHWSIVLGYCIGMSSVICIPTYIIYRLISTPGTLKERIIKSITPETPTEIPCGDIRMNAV

Consider `CCC(=O)O[C@@H]1CN(Cc2ccc(F)cc2)CC[C@H]1CCOC(c1ccccc1)c1ccccc1`, for which the half-maximal inhibitory concentration (IC50) came to 35800 nM in test [1], 178000 nM in test [2] and 583 nM in test [3].

As to `Fc1ccc(CN2CC=C(CCOC(c3ccccc3)c3ccccc3)CC2)cc1`, the figures for the IC50 in test [2] and in test [3] were 1110 nM and 37.8 nM, respectively.

In test [4], `Fc1ccc(CN2CCC(CCOC(c3ccccc3)c3ccccc3)CC2)cc1` came in with an IC50 of 2.48 nM.

Take `O=C1CN(Cc2ccc(F)cc2)CC[C@H]1CCOC(c1ccccc1)c1ccccc1`: the IC50 in test [1] came out at 6300 nM; in test [2], 7750 nM; in test [3] it was 99 nM.

As to `O[C@@H]1CN(Cc2ccc(F)cc2)CC[C@H]1CCOC(c1ccccc1)c1ccccc1`, the concentration for half-maximal inhibition (IC50) in test [4] worked out at 38 nM; in test [1] it was 1550 nM; in test [2], 1830 nM; in test [3], 56.7 nM.

Consider `OC1CN(Cc2ccc(F)cc2)CC[C@@H]1CCOC(c1ccccc1)c1ccccc1` (stereo not given in full), for which the IC50 in test [4] was determined as 4.05 nM; in test [1], 1880 nM; in test [2], 3600 nM; in test [3] it was 0.46 nM.

As to `O[C@H]1CN(Cc2ccc(F)cc2)CC[C@H]1CCOC(c1ccccc1)c1ccccc1` (racemic), the IC50 in test [4] is 10.1 nM; in test [1] it was 2150 nM; in test [2] it was 3310 nM; in test [3], 11.2 nM.

Regarding `O[C@@H]1CN(Cc2ccc(F)cc2)CC[C@H]1CCOC(c1ccccc1)c1ccccc1` (racemic), the IC50 in test [4] is 3.22 nM; in test [1], 1030 nM; in test [2] it was 2360 nM; in test [3] it was 4.14 nM.

(Values after ChEMBL document CHEMBL1136714 (J Med Chem, 2003).)
